target: T1, human TREM2 (Homo sapiens, UniProt Q9NZC2); assay: TREM2 agonist potency by cellular phosphorylation of Spleen Tyrosine Kinase (Syk), AlphaLisa, HEK293T-hTREM2 cells; assay type: cell-based; details: not given
T1 construct: expressed in transfected cells; host or cells: HEK293T (HEK293T-hTREM2 cells)
Procedure, shortened: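 HEK293T cells co-expressing human TREM2 and DAP12, plated 20–24 h before use. Compounds applied 45 min at room temperature in assay buffer, then cells lysed and phospho-Syk quantified by AlphaLisa. Percent activation from a standard curve; EC50 from a four-parameter variable-slope fit.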

T1 sequence (Q9NZC2 19-230): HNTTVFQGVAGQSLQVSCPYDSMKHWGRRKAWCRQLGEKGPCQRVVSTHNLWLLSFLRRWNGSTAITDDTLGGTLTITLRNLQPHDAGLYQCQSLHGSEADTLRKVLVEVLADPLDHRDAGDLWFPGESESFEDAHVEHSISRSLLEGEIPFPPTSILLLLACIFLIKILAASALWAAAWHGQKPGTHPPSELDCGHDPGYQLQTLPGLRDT
T1 sequence (O43914 22-113 partner): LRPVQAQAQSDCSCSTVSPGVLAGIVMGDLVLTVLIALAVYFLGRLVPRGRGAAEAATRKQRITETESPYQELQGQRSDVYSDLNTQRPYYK

EC50 | Structure (SMILES)
< 100 nM | Cc1nc2nc(N3C[C@@H](C)O[C@@H](c4ccc(=O)n(C)c4)C3)nc(C34CC(C(F)(F)F)(C3)C4)c2nc1C(F)F [Example 180, 5-[(2S,6R)-4-[6-(difluoromethyl)-7-methyl-4-[3-(trifluoromethyl)-1-bicyclo[1.1.1]pentanyl]pteridin-2-yl]-6-methyl-morpholin-2-yl]-1-methyl-pyridin-2-one]

same assay, conditions: hTREM2 EC50 Data (HEK293 Cells); Syk phosphorylation, AlphaLisa; read-out: hTREM2 EC50

Structure (SMILES) | EC50
COc1nc2c(-c3ccc(C(F)(F)F)cc3F)nc(C3CCOC(c4ccc(=O)n(C)c4)C3)nc2nc1C (stereo not shown) [Example 131] | < 100 nM
Cc1nc2nc([C@H]3CCO[C@@H](c4ccc(=O)n(C(F)F)c4)C3)nc(C34CC(C(F)(F)F)(C3)C4)c2nc1C [Example 90] | < 100 nM
Cc1nc2nc([C@H]3CCO[C@@H](c4ccc(=O)n(C)c4)C3)nc(C34CC(C(C)(C)F)(C3)C4)c2nc1C [Example 52, 5-[(2R,4S)-4-[4-[3-(1-fluoro-1-methyl-ethyl)-1-bicyclo[1.1.1]pentanyl]-6,7-dimethyl-pteridin-2-yl]tetrahydropyran-2-yl]-1-methyl-pyridin-2-one] | < 100 nM
[2H]C([2H])([2H])n1cc([C@H]2C[C@@H](c3nc(C45CC(C(F)(F)F)(C4)C5)c4nc(OC)c(C)nc4n3)CCO2)cc(C)c1=O [Example 149, 5-[(2R,4S)-4-[6-methoxy-7-methyl-4-[3-(trifluoromethyl)-1-bicyclo-[1.1.1]pentanyl]pteridin-2-yl]tetrahydropyran-2-yl]-3-methyl-1-(trideuteriomethyl)-pyridin-2-one] | < 100 nM
Cc1nc2nc([C@H]3CCO[C@@H](c4ccc(=O)n(C)c4)C3)nc(C3CCC(CF)CC3)c2nc1C (stereo partly drawn) [Example 50, 5-[(2R,4S)-4-[4-[4-(fluoromethyl)-cyclohexyl]-6,7-dimethyl-pteridin-2-yl]tetrahydropyran-2-yl]-1-methyl-pyridin-2-one] | < 100 nM
Cc1nc2c(C34CC(C(F)(F)F)(C3)C4)nc(N3C[C@@H](C)O[C@@H](c4ccc(=O)n(C5CC5)c4)C3)nc2c(=O)n1C [Example 219] | < 100 nM

The remaining lines, values ahead:

EC50 | Structure (SMILES)
< 100 nM | Cc1nc2nc([C@H]3CCO[C@@H](c4ccc(=O)n(C)c4)C3)nc(C34CC(C(C)(F)F)(C3)C4)c2nc1C [Example 38, 5-[(2R,4S)-4-[4-[3-(1,1-difluoroethyl)-1-bicyclo[1.1.1]pentanyl]-6,7-dimethyl-pteridin-2-yl]tetrahydropyran-2-yl]-1-methyl-pyridin-2-one]
< 100 nM | C[C@@H]1CN(c2nc(-c3ccc(F)cc3F)c3sc(N(C)C)nc3n2)C[C@H](c2ccc(=O)[nH]c2)O1 [Example 173, 5-[(2S,6R)-4-[7-(2,4-difluorophenyl)-2-(dimethylamino)thiazolo[4,5-d]pyrimidin-5-yl]-6-methyl-morpholin-2-yl]-1H-pyridin-2-one]
< 100 nM | Cc1nc2nc([C@H]3CCO[C@@H](c4ccc(=O)n(C)c4)C3)nc(C34CC(Cl)(C3)C4)c2nc1C (single isomer, unassigned) [Example 40]

— patent US20260356841A1, “HETEROCYCLIC PYRIDINONE COMPOUNDS AS TRIGGERING RECEPTOR EXPRESSED ON MYELOID CELLS 2 AGONISTS AND METHODS OF USE” (Vigil Neuroscience, Inc., priority 2023, published 2026)
